ChEMBL document CHEMBL5352478, “Novel pyridine-containing histone deacetylase inhibitors strongly arrest proliferation, induce apoptosis and modulate miRNAs in cancer cells” (Eur J Med Chem, 2023)
“And” between values parts separate entries of the source, which are not always exact repeats. Equal entries are not always repeated.

How the values were obtained:
[1] = test system: HCT-116; test: cells; type: functional, cell-based; conditions: Homo sapiens, HCT-116, 72 h
[2] = test system: K562; test: cells; type: functional, cell-based; conditions: Homo sapiens, K562, 72 h
[3] = target: Histone deacetylase 2 (Homo sapiens, UniProt Q92769)
Histone deacetylase 2, sequence (Q92769 whole entry): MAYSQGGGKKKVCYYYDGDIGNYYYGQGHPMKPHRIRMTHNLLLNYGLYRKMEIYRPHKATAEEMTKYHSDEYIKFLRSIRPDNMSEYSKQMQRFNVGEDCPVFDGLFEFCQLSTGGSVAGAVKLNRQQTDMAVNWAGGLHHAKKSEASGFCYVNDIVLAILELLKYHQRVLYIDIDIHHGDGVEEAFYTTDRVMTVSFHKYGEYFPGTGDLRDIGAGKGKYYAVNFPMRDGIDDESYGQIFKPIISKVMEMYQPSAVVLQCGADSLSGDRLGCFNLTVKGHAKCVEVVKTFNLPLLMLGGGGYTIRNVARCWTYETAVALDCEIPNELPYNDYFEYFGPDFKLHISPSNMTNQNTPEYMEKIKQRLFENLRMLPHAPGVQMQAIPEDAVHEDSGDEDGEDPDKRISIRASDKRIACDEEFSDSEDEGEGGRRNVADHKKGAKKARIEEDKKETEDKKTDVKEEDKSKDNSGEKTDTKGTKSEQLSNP

[4] = target: Histone deacetylase 4 (Homo sapiens, UniProt P56524)
Histone deacetylase 4, sequence (P56524 whole entry): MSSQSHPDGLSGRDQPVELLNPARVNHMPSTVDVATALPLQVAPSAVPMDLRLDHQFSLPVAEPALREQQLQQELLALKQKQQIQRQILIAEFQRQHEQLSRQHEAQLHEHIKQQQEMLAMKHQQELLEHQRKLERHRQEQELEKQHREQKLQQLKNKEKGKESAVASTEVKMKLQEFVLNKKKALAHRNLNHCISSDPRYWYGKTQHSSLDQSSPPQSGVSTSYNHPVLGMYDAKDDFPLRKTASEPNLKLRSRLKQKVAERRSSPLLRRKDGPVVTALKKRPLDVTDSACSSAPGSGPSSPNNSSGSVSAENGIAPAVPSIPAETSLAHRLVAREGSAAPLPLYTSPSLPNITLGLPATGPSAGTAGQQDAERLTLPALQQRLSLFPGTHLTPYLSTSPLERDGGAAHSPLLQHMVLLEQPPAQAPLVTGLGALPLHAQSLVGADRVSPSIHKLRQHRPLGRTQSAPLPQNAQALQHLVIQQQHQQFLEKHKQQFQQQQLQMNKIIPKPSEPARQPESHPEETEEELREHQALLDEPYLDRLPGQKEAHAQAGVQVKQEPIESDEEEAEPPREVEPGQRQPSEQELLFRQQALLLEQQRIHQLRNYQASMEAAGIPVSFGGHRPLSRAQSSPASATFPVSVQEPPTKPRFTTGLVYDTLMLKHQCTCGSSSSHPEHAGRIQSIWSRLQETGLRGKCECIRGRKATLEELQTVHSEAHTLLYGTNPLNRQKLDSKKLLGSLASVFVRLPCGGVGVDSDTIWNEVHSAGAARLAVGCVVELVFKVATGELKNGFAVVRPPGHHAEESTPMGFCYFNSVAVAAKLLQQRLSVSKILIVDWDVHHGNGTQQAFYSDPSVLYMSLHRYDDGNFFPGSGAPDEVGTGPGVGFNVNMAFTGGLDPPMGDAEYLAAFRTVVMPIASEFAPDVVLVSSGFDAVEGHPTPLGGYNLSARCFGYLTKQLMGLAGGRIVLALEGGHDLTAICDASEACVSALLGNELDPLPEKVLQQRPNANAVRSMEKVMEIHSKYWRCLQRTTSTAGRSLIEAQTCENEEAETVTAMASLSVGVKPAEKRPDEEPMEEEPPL

[5] = target: Histone deacetylase 5 (Homo sapiens, UniProt Q9UQL6)
Histone deacetylase 5, sequence (Q9UQL6 whole entry): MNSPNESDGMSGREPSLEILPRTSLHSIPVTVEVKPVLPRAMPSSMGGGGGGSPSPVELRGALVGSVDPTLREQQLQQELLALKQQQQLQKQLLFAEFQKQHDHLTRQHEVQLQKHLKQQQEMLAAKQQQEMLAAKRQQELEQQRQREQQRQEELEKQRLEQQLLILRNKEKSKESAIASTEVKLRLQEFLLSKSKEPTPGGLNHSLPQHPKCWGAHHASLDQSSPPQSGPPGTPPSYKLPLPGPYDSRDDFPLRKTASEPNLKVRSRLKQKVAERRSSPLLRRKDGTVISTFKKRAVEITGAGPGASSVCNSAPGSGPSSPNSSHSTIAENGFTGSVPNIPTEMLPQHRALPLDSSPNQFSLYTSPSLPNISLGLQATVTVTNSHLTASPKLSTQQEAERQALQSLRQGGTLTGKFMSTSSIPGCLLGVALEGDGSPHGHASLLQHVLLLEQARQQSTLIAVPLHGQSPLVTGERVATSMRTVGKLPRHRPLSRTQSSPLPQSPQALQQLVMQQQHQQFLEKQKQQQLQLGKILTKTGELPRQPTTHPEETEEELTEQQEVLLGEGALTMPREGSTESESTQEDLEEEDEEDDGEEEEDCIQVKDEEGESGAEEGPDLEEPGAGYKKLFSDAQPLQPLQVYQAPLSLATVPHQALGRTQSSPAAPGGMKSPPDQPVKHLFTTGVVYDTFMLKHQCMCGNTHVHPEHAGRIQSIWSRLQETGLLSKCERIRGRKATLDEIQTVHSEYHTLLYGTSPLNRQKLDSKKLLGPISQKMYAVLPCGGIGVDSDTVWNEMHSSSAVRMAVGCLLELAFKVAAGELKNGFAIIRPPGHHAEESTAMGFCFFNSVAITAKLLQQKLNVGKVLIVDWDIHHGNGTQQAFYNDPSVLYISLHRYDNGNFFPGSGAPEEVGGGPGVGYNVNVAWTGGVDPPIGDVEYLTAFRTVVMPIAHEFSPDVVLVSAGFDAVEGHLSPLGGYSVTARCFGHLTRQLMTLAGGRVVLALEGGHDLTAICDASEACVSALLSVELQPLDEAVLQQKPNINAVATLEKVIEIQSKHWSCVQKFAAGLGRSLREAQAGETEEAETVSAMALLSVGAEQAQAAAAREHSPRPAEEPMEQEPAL

[6] = target: T1, Histone deacetylase 8 (Homo sapiens, UniProt Q9BY41)
T1 sequence (Q9BY41 whole entry): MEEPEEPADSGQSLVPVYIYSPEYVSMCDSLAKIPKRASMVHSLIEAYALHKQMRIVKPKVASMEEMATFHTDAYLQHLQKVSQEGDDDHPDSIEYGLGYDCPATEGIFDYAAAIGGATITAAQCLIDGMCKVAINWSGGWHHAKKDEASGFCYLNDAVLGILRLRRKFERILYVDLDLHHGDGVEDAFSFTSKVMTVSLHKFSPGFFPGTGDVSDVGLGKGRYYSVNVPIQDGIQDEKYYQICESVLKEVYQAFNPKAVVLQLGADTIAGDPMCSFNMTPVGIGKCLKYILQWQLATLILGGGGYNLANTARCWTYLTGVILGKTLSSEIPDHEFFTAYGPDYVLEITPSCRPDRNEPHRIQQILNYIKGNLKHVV

[7] = target: Histone deacetylase 1 (Homo sapiens, UniProt Q13547)
Histone deacetylase 1, sequence (Q13547 whole entry): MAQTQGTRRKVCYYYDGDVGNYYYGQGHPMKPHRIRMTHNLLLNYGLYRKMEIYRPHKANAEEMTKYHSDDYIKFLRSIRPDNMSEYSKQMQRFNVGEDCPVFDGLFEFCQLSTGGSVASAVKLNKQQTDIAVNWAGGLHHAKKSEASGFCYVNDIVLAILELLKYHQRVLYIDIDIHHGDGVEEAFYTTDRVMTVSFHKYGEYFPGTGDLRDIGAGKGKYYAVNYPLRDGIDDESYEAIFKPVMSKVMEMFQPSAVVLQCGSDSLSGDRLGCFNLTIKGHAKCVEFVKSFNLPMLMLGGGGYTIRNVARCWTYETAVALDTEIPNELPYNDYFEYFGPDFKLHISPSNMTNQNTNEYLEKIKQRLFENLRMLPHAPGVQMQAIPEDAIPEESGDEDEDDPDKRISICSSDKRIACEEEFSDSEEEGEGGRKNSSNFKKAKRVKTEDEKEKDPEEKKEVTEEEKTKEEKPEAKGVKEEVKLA

[8] = test system: U-937; test: Induction of cell cycle arrest in human U-937 cells assessed as accumulation of cells in G1 phase at 1 to 5 uM for 48 hrs by PI staining based flow cytometric analysis; type: functional; conditions: dose 1-5 µM
[9] = target: T2, Polyamine deacetylase HDAC10 (Homo sapiens, UniProt Q969S8)
T2 sequence (Q969S8 whole entry): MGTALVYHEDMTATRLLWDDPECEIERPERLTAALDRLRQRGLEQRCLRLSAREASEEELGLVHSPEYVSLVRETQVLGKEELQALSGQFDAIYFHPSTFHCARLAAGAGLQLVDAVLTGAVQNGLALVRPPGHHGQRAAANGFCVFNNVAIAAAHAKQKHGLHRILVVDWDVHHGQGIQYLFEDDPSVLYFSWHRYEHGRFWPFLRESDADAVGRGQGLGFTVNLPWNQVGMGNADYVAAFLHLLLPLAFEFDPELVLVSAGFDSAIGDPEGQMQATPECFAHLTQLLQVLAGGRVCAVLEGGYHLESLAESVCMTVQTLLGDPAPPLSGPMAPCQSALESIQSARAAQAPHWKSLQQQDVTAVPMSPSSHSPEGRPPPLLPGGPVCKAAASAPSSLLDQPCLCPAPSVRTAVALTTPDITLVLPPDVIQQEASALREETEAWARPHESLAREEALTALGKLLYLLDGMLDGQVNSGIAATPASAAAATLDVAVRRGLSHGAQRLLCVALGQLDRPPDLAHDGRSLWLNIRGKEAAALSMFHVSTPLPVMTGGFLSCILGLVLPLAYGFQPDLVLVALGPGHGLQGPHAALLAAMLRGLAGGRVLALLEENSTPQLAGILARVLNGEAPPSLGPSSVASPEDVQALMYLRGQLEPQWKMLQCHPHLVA

[10] = test system: A549; test: cells; type: functional, cell-based; conditions: Homo sapiens, A549, 72 h
[11] = target: Histone deacetylase 9 (Homo sapiens, UniProt Q9UKV0)
Histone deacetylase 9, sequence (Q9UKV0 whole entry): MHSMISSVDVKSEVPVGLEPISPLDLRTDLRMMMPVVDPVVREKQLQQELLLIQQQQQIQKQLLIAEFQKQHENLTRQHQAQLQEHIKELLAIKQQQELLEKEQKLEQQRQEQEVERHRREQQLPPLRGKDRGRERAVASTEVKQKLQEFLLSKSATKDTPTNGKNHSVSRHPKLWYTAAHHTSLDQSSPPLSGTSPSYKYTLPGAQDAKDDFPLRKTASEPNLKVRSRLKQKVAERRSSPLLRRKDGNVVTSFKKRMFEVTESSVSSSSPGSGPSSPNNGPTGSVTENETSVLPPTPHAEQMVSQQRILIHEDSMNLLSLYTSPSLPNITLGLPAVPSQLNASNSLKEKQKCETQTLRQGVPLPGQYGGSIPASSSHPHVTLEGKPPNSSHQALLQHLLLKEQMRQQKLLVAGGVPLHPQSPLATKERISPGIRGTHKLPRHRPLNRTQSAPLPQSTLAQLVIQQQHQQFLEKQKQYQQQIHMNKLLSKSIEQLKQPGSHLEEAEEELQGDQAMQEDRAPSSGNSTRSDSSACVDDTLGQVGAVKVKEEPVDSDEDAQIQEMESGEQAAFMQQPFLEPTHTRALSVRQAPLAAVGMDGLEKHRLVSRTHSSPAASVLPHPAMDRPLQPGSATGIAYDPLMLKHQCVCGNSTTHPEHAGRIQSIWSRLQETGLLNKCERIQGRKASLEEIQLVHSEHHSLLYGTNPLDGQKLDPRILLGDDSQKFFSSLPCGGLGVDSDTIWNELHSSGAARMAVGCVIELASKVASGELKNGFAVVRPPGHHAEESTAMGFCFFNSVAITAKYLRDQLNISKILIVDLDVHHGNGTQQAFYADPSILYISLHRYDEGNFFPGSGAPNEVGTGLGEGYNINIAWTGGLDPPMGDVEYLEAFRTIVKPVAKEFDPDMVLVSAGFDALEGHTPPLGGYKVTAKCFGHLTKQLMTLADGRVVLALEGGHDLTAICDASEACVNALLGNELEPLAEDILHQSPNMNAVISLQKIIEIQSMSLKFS

[12] = target: T3, Histone deacetylase 7 (Homo sapiens, UniProt Q8WUI4)
T3 sequence (Q8WUI4 whole entry): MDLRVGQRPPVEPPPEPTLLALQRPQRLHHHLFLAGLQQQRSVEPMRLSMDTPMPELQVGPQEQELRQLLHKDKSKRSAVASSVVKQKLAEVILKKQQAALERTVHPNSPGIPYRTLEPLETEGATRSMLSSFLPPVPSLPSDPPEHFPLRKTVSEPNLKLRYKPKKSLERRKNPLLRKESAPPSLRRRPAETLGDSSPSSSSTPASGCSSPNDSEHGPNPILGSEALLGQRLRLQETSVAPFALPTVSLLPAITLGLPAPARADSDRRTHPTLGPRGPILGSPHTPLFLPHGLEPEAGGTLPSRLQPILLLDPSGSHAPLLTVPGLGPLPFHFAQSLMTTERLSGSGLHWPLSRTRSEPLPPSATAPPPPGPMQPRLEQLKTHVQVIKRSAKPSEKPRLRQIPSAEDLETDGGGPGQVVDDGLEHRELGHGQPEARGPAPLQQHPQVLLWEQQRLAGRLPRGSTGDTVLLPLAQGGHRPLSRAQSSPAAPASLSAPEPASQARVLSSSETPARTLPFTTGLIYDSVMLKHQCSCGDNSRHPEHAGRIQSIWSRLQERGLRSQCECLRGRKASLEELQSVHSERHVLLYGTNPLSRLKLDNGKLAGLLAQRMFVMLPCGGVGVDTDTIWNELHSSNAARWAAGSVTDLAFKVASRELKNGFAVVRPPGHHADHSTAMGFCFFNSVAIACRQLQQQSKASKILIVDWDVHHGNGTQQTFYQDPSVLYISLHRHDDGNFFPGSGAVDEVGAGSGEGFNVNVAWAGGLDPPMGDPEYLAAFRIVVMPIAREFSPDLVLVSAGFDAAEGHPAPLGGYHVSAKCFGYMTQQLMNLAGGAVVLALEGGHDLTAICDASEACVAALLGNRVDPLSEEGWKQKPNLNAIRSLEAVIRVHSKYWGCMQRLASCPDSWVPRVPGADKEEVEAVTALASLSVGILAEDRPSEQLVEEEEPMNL

[13] = target: T4, Histone deacetylase 11 (Homo sapiens, UniProt Q96DB2)
T4 sequence (Q96DB2 whole entry): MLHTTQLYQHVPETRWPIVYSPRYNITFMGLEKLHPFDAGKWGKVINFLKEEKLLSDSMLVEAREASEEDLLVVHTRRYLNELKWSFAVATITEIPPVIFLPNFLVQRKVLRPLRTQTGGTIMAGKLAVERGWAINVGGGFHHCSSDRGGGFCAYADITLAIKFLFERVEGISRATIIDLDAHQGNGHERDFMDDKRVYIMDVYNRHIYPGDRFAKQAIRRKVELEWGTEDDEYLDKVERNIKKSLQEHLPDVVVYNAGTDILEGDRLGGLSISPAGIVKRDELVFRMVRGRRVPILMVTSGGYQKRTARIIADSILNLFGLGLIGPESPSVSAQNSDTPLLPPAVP

[14] = test system: U-937; test: Induction of cell cycle arrest in human U-937 cells assessed as accumulation of cells in pre-G1 phase at 5 uM for 24 hrs by PI staining based flow cytometric analysis; type: functional
[15] = target: Histone deacetylase 3 (Homo sapiens, UniProt O15379)
Histone deacetylase 3, sequence (O15379 whole entry): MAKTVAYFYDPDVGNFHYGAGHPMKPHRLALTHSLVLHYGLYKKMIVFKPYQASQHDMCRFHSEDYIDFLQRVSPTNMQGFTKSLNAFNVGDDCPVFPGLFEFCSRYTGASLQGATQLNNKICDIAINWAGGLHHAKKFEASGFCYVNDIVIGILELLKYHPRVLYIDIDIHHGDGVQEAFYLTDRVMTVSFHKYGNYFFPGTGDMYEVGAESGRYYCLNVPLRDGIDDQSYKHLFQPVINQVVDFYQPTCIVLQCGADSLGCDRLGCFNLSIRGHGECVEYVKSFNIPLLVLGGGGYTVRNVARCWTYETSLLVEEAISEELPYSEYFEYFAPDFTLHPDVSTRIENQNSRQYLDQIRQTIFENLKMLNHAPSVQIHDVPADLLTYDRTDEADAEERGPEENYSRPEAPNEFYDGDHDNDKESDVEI

[16] = test system: KARPAS-299; test: Antiproliferative activity against human KARPAS-299 cells incubated for 48 hrs; type: functional, cell-based; conditions: KARPAS-299, 48 h
[17] = test system: OCI-AML2; test: Antiproliferative activity against human OCI-AML2 cells incubated for 48 hrs; type: functional, cell-based; conditions: OCI-AML2, 48 h
[18] = test system: MV4-11; test: Antiproliferative activity against human MV4-11 cells incubated for 48 hrs; type: functional, cell-based; conditions: MV4-11, 48 h
[19] = test system: U-937; test: Induction of cell cycle arrest in human U-937 cells assessed as cell death at 5 uM for 48 hrs by PI staining based flow cytometric analysis; type: functional
[20] = test system: U-937; test: Induction of cell cycle arrest in human U-937 cells assessed as accumulation of cells in pre-G1 phase at 5 uM for 48 hrs by PI staining based flow cytometric analysis; type: functional; conditions: 48 h, 5 µM
[21] = target: T4, Histone deacetylase 11; remark: listed apart in the source
[22] = test system: OCI-AML-3; test: Antiproliferative activity against human OCI-AML-3 cells incubated for 48 hrs; type: functional, cell-based; conditions: OCI-AML-3, 48 h
[23] = test system: U-937; test: Antiproliferative activity against human U-937 cells incubated for 48 hrs; type: functional, cell-based; conditions: U-937, 48 h
[24] = Antiproliferative activity against human IMS-M2 cells incubated for 48 hrs; type: functional, cell-based; conditions: IMS-M2, 48 h
[25] = test system: Kasumi 1; test: Antiproliferative activity against human Kasumi 1 cells incubated for 48 hrs; type: functional, cell-based; conditions: Kasumi 1, 48 h
[26] = test system: HL-60; test: Antiproliferative activity against human HL-60 cells incubated for 48 hrs; type: functional, cell-based; conditions: HL-60, 48 h
[27] = test system: NB-4; test: Antiproliferative activity against human NB4 cells incubated for 48 hrs; type: functional, cell-based; conditions: NB-4, 48 h

In the case of Nc1ccccc1NC(=O)c1ccc(NC(=O)C(Cc2ccccc2)c2ccccc2)cn1 (stereo unspecified), the IC50 [1] is reported as 320 nM, the IC50 [2] is reported as 320 nM and the IC50 [3] is reported as 431 nM. For the same compound, the IC50 [4] was “Not Active”, the IC50 [5] was “Not Active” and the IC50 [6] was “Not Active”. The IC50 [7] was 353 nM, the Activity [8] was 70% and the IC50 [9] was 320 nM. The IC50 [10] was 1510 nM, the IC50 [11] was “Not Active” and the IC50 [12] was “Not Active”. For the same compound, the IC50 [13] was 85.4 µM, the Activity [14] was 10% and the IC50 [15] was 515 nM.
For Nc1ccccc1NC(=O)c1ccc(NC(=O)Cc2ccc3ccccc3c2)cn1, the IC50 [16] was 9.27 µM, the IC50 [17] was 1500 nM and the IC50 [1] was 430 nM. It also gave an IC50 [2] of 370 nM, an IC50 [18] of 170 nM and an IC50 [3] of 227 nM. For the same compound, the IC50 [4] was “Not Active”, the Activity [19] was 100% and the IC50 [5] was “Not Active”. For the same compound, the IC50 [6] was “Not Active”, the IC50 [7] was 189 nM and the Activity [20] was 50% and 30%. For the same compound, the Activity [8] was 70%, the IC50 [21] was “Not Active” and the IC50 [22] was 4.14 µM. The IC50 [23] was 822 nM, the IC50 [9] was 446 nM and the IC50 [10] was 1280 nM. The IC50 [24] was 155 nM, the IC50 [25] was 257 nM and the IC50 [26] was 218 nM. For the same compound, the IC50 [11] was “Not Active”, the IC50 [27] was 210 nM and the IC50 [12] was “Not Active”. The Activity [14] was 10% and the IC50 [15] was 440 nM.
